Source: patent US11873299B1, “7-(4-((5-(4-chlorobenzylideneamino)-2-thioxo-1,3,4-thiadiazol-3(2H)-yl)methyl)iperazin-1-yl)-1-cyclopropyl-6-fluoro-4-oxo-1,4-dihydroquinoline-3-carboxylic acid as an anti-inflammatory compound” (KING FAISAL UNIVERSITY, priority 2023, dated 2024)

Assays:
[1] = biological target: Bovine Serum Albumin (BSA) (Bos taurus, UniProt P02769); assay: Bovine Serum Albumin Assay (BSA), inhibition of protein denaturation; assay type: biochemical; conditions: dilutions of 20, 40, 60, 80, and 100 μg/mL; 0.4% w/v BSA, pH 6.4; 72° C. for 10 minutes; turbidity at 660 nm
Chain of Bovine Serum Albumin (BSA) (P02769 25-607): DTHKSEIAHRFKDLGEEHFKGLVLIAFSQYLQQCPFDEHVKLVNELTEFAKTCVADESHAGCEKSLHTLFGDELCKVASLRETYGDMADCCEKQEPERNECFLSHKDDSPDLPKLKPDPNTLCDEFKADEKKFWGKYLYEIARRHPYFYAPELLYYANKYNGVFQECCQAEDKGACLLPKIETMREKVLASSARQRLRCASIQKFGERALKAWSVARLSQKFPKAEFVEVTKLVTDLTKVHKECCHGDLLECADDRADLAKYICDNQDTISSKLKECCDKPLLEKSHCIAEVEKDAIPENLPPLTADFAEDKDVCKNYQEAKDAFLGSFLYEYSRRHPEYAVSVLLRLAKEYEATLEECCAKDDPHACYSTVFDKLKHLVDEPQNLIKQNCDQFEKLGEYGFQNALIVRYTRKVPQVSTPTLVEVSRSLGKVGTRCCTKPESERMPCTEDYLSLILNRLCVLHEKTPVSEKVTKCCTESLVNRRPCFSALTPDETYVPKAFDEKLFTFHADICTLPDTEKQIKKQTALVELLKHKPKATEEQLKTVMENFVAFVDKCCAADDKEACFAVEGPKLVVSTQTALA
Protocol: Bovine Serum Albumin Assay (BSA)
In vitro-inflammatory activities of the tested samples were determined using a modified method of the BSA assay reported by Williams et al. BSA solution (0.4%, w/v) was prepared in Tris Buffered Saline. The pH was adjusted to 6.4 with glacial acetic acid. Different dilutions of 20, 40, 60, 80, and 100 μg/mL of 7-(4-((5-(4-chlorobenzylideneamino)-2-thioxo-1,3,4-thiadiazol-3(2H)-yl)methyl)piperazin-1-yl)-1-cyclopropyl-6-fluoro-4-oxo-1,4-dihydroquinoline-3-carboxylic acid (IV) the stock solutions were added to test tubes containing 1 mL of 0.4%, w/v BSA buffer solution. Both negative (solvent) and positive (aspirin) controls were assayed in a similar manner. The solutions were then heated in a water bath at 72° C. for 10 minutes, and cooled for 20 minutes under laboratory conditions. The turbidity of the solutions (level of protein precipitation) was measured at 660 nm in Spectrophotometer (V-770 UV-Visible/NIR Spectrophotometer). The percentage inhibition of precipitation (protein denaturation) was determined relative to the negative control using the following equation:
[formula] % Anti-Denaturation Activity=% Inhibition of Protein Denaturation=% Anti-inflammatory Activity

melting point: 221 to 223 °C
in vitro anti-inflammatory activity (inhibition of protein denaturation) [1]: considerable anti-inflammatory effect
SMILES: O=C(O)c1cn(C2CC2)c2cc(N3CCN(Cn4nc(/N=C/c5ccc(Cl)cc5)sc4=S)CC3)c(F)cc2c1=O [IV, 7-(4-((5-(4-chlorobenzylideneamino)-2-thioxo-1,3,4-thiadiazol-3(2H)-yl)methyl)piperazin-1-yl)-1-cyclopropyl-6-fluoro-4-oxo-1,4-dihydroquinoline-3-carboxylic acid]
